This assay deals with A549 (lung cancer) cells. As to the kind of experiment: MTT screening of Erlotinib derivatives on A549 cells. It is filed as cell-based. Particulars: compound 10 μM, 24 hours, ratio of survival rate with derivative to survival rate with Erlotinib (lower = more active), unpurified in-situ reaction products. On the procedure: Screening 840 Erlotinib derivatives by MTT method, operating steps: • (1) A549 (lung cancer) cells were adhered overnight: the logarithmic growth phase cells were digested and then counted, and were laid on 96 well plates overnight with 5000 cells per well. • (2) Adding drug: the compound concentration was diluted to 10 μM with complete culture solution, and the supernatant was discarded, and a volume of 100 μL per well was administrated and treated for 24 hours. • (3) Adding MTT: 20 μL MTT (5 mg/ml) was added to each well and cultured for 4 hours. • (4) Measuring the absorbance value: discarding the supernatant, 150 μL DMSO was added to each well, shaken for 10 minutes to make the crystals fully dissolved. The absorbance at 570 nm was measured by microplate reader.
The relative survival rate was calculated as the ratio of the survival rate of cells treated with Erlotinib derivatives to the survival rate of cells treated with positive compounds (Erlotinib), where lower relative survival rate means the activity of the compounds are better.
On to `COCCOc1cc2ncnc(Nc3cccc(-c4cn(-c5ccc(Cc6ccccc6)cc5)nn4)c3)c2cc1OCCOC` [Compound 269], for which the Relative survival rate is recorded as 1.289.
As for `COCCOc1cc2ncnc(Nc3cccc(-c4cn(-c5ccc(O)c(C(=O)O)c5)nn4)c3)c2cc1OCCOC` [Compound 267], the Relative survival rate is given as 1.129.
The same measure for `COCCOc1cc2ncnc(Nc3cccc(-c4cn(CC(O)c5cccc(O)c5)nn4)c3)c2cc1OCCOC` (centres unmarked) [Compound 95]: 0.971; for `COCCOc1cc2ncnc(Nc3cccc(-c4cn(CCc5cccc(C(F)(F)F)c5)nn4)c3)c2cc1OCCOC` [Compound 93]: 0.621.
For `COCCOc1cc2ncnc(Nc3cccc(-c4cn(-c5ccc(CC(=O)OC)cc5)nn4)c3)c2cc1OCCOC` [Compound 270], the Relative survival rate is given as 1.200.
As for `COCCOc1cc2ncnc(Nc3cccc(-c4cn(CCc5ccc(Cl)c(Cl)c5)nn4)c3)c2cc1OCCOC` [Compound 87], the Relative survival rate stood at 0.850.
The same measure for `COCCOc1cc2ncnc(Nc3cccc(-c4cn(CC(O)c5cccc(Cl)c5)nn4)c3)c2cc1OCCOC` (centres unmarked) [Compound 92]: 0.854; for `COCCOc1cc2ncnc(Nc3cccc(-c4cn(C(C)(C)c5cc(F)cc(F)c5)nn4)c3)c2cc1OCCOC` [Compound 56]: 0.978; for `COCCOc1cc2ncnc(Nc3cccc(-c4cn(-c5ccccc5)nn4)c3)c2cc1OCCOC` [Compound 266]: 1.130.
Consider `COCCOc1cc2ncnc(Nc3cccc(-c4cn(-c5ccc(C)cc5C(=O)O)nn4)c3)c2cc1OCCOC` [Compound 268], for which the Relative survival rate came out at 1.311.
In the case of `COCCOc1cc2ncnc(Nc3cccc(-c4cn([C@H](CO)C(=O)OCc5ccccc5)nn4)c3)c2cc1OCCOC` [Compound 51], the Relative survival rate is reported as 0.989.
The same measure for `COCCOc1cc2ncnc(Nc3cccc(-c4cn([C@H]5CCc6nc(N)sc6C5)nn4)c3)c2cc1OCCOC` [Compound 22]: 0.866; for `COCCOc1cc2ncnc(Nc3cccc(-c4cn(CCc5cccc(F)c5)nn4)c3)c2cc1OCCOC` [Compound 86]: 0.861; for `COCCOc1cc2ncnc(Nc3cccc(-c4cn(CCc5cccc([N+](=O)[O-])c5)nn4)c3)c2cc1OCCOC` [Compound 49]: 0.913.
In the case of `COCCOc1cc2ncnc(Nc3cccc(-c4cn([C@H](Cc5ccc(O)cc5)C(=O)OC)nn4)c3)c2cc1OCCOC` [Compound 88], the Relative survival rate is listed as 0.889.
In the case of `COCCOc1cc2ncnc(Nc3cccc(-c4cn([C@H](C)c5nc6ccccc6[nH]5)nn4)c3)c2cc1OCCOC` [Compound 52] it was 0.993.
In the case of `CCOc1ccccc1Cn1cc(-c2cccc(Nc3ncnc4cc(OCCOC)c(OCCOC)cc34)c2)nn1` [Compound 48] it was 0.971.
The same measure for `COCCOc1cc2ncnc(Nc3cccc(-c4cn([C@@H](Cc5ccccc5)C(=O)OC)nn4)c3)c2cc1OCCOC` [Compound 94]: 0.885; for `COCCOc1cc2ncnc(Nc3cccc(-c4cn(CCc5cccc(OC)c5)nn4)c3)c2cc1OCCOC` [Compound 20]: 0.993; for `COCCOc1cc2ncnc(Nc3cccc(-c4cn(Cc5cccc(C(=O)OC)c5)nn4)c3)c2cc1OCCOC` [Compound 50]: 0.951.
In the case of `COCCOc1cc2ncnc(Nc3cccc(-c4cn(C(C)(C)c5ccccc5)nn4)c3)c2cc1OCCOC` [Compound 27], the Relative survival rate is on record as 0.862.
In the case of `COCCOc1cc2ncnc(Nc3cccc(-c4cn(C[C@@H](O)c5ccccc5)nn4)c3)c2cc1OCCOC` [Compound 84] it was 0.988; in that of `COCCOc1cc2ncnc(Nc3cccc(-c4cn(CCc5ccccn5)nn4)c3)c2cc1OCCOC` [Compound 99], 0.888; in that of `COCCOc1cc2ncnc(Nc3cccc(-c4cn(Cc5ccccc5S(C)(=O)=O)nn4)c3)c2cc1OCCOC` [Compound 55], 0.814.
The same measure for `COCCOc1cc2ncnc(Nc3cccc(-c4cn(CCc5c[nH]c6cc(Cl)ccc56)nn4)c3)c2cc1OCCOC` [Compound 90]: 0.522.
Regarding `CCOC(=O)[C@H](Cc1ccc(O)cc1)n1cc(-c2cccc(Nc3ncnc4cc(OCCOC)c(OCCOC)cc34)c2)nn1` [Compound 26], the Relative survival rate was 0.942.
The same measure for `COCCOc1cc2ncnc(Nc3cccc(-c4cn(Cc5c[nH]cn5)nn4)c3)c2cc1OCCOC` [Compound 53]: 0.928; for `COCCOc1cc2ncnc(Nc3cccc(-c4cn(Cc5ccsc5)nn4)c3)c2cc1OCCOC` [Compound 57]: 0.957; for `COCCOc1cc2ncnc(Nc3cccc(-c4cn(Cc5cc(C)on5)nn4)c3)c2cc1OCCOC` [Compound 54]: 0.878.
On to `COCCOc1cc2ncnc(Nc3cccc(-c4cn(-c5cc(C)nn5-c5ccccc5)nn4)c3)c2cc1OCCOC` [Compound 47], for which the Relative survival rate turned out to be 0.893.
In the case of `COCCOc1cc2ncnc(Nc3cccc(-c4cn([C@@H](Cc5ccccc5)C(=O)OC(C)(C)C)nn4)c3)c2cc1OCCOC` [Compound 23] it was 0.874; in that of `COCCOc1cc2ncnc(Nc3cccc(-c4cn(CCc5ccc6ccccc6c5)nn4)c3)c2cc1OCCOC` [Compound 97], 0.654.
`COCCOc1cc2ncnc(Nc3cccc(-c4cn(CC5=CCC(O)C=C5)nn4)c3)c2cc1OCCOC` (centres unmarked) [Compound 25]: the Relative survival rate amounted to 0.885.
In the case of `COCCOc1cc2ncnc(Nc3cccc(-c4cn(C(C)(Cc5ccccc5)C(=O)OC)nn4)c3)c2cc1OCCOC` (centres unmarked) [Compound 24], the Relative survival rate turned out to be 0.557.
The same measure for `COCCOc1cc2ncnc(Nc3cccc(-c4cn(Cc5ccc(Cl)nc5)nn4)c3)c2cc1OCCOC` [Compound 98]: 0.959; for `COCCOc1cc2ncnc(Nc3cccc(-c4cn(CCCOCc5ccccc5)nn4)c3)c2cc1OCCOC` [Compound 85]: 0.867; for `COCCOc1cc2ncnc(Nc3cccc(-c4cn(C5CCCc6ccccc65)nn4)c3)c2cc1OCCOC` (centres unmarked) [Compound 89]: 0.577.
In the case of `COCCOc1cc2ncnc(Nc3cccc(-c4cn([C@@H](C)C(=O)OCc5ccccc5)nn4)c3)c2cc1OCCOC` [Compound 96] it was 0.829.

The values are drawn from patent publication US12681007B2, “High throughput method for constructing and screening compound library and reaction device” (ZH[…] (SHENZHEN) CO., LTD., priority 2019, dated 2026).
